Like-named read-outs stand apart in the source and are kept apart here.
Legend:
TNF gene transcript = assay: TNF mRNA in LPS-stimulated RAW 264.7 cells (RNase protection assay); format: cell-based, murine
Description: Cell Culture. BALB/c murine macrophage-like RAW 264.7 cells obtained from the American Type Culture Collection (ATCC Number TIB-71, ATCC, Rockville, Mass.) (61), were cultured in RPMI 1640 (Life Technologies, Grand Island, N.Y.) supplemented with 10% heat inactivated fetal bovine serum (Gemini, Calabasas, Calif.), 2 mM glutamine (Cat. # 25030-149, Gibco BRL, Rockville, Mass.) and antibiotic-antimycotic mix (Cat. # 15240-062, Gibco BRL, Rockville, Mass.) in a humidified incubator with 5% CO2. Cells were mechanically removed and resuspended in serum-free Opti-MEM I medium (Life Technology, Grand Island, N.Y.) to perform experiments at 75% confluence.
Total RNA extraction and RNase protection assay. […] The levels of TNF and cyclophilin mRNA in RAW cells were measured using an RNase protection assay kit from PharMingen in accordance with the manufacturer's instructions (San Diego, Calif.). […] Molecular weight markers were prepared using pBR-322 plasmid DNA digested with MSP I (New England Bio Labs, Beverly, Mass.) and Klenow end-labeled (Strategene, La Jolla, Calif.) with ^α-32P-dCTP (800 Ci/mmol, Amersham); mRNA levels were measured with an Instantlmager (Packard Instrument Co., Meriden, Conn.).
To determine the effect of ethyl pyruvate on TNF synthesis by macrophages, murine macrophage-like RAW 264.7 cells were stimulated with endotoxin, and TNF measured in the conditioned media. […]

[1] = tested on: lethal sepsis caused by peritonitis (cecal perforation); assay: Cecal ligation and puncture (CLP) peritonitis/sepsis: survival; format: in vivo, Balb/C mice
Description: Animal Experiments. Male 6-8 week old Balb/C mice (20-25 g) were purchased from Harlen Sprague-Dawley (Indianapolis, Ind.) and allowed to acclimate for 7 days housed at 25° C. on a 12 h light/dark cycle. Animals were randomly grouped (10 mice per group) and assigned to a specific experiment. All animal experiments were performed in accordance with the National Institutes of Health Guidelines under protocols approved by the Institutional Animal Care and Use Committee of North Shore University Hospital and New York University Medical School.
Cecal ligation and puncture (CLP). Cecal ligation and puncture (CLP) was performed as described by (Wichterman et al., J. Surg. Res. (1980) 29(2):189-201). Briefly, mice were anesthetized with 20 mg/ml xylazine intramuscularly at a dose of […], a midline incision was performed, and the cecum was isolated. A 6-0 prolene suture ligature was placed at a level 5.0 mm from the cecal tip away from the ileocecal valve. The ligated cecal stump was then punctured once with a 22-gauge needle, and stool extruded (1 mm) to ascertain patency of the puncture site. […] Mortality was recorded for up to 1 week after the procedure; survivors were followed for 3 weeks to ensure no late mortalities had occurred. […]

p38 MAPK = assay: LPS-induced p38 MAPK phosphorylation in RAW264.7 cells (western blot); format: cell-based, murine
Description: (a) RAW264.7 cells were stimulated with LPS in the presence of the indicated concentrations of ethyl pyruvate. The activation of NF-kB was analyzed by EMSA at 15 min and 4 hours using a ^32P-labeled NF-B probe. Ethyl pyruvate suppressed activation of NF-B in an ethyl pyruvate concentration dependent fashion. The experiment was repeated 3 times. (b) Supershift and competition studies. Nuclear extract of macrophages stimulated with LPS and incubated with antibody against p65-Rel to induce specific supershift of NF-κB complex. Nuclear extracts were incubated with 100-fold molar excess of unlabeled (cold) NP-κB or HIF-1 probe for competition analysis. (c) RAW264.7 cells were stimulated with LPS in the presence of the indicated concentration of ethyl pyruvate. The phosphorylation of p38MAPK was analyzed by western blot using antibodies against phosphorylated (thr180/tyr182) p38MAPK (in accordance with the manufacturer (New England Biolabs, Inc Cat. # 9210, Beverly, Mass.). (d) The total amount of p38 MAPK is visualized by western blot. Ethyl pyruvate prevents the phosphorylation of p38MAPK in macrophage cultures without affecting the intracellular level of total p38MAPK; and
Cell Culture. […]

## CCOC(=O)C(C)=O [ethyl pyruvate]
TNF gene transcript
  amount of TNF mRNA / TNF transcription: prevents LPS-induced transcription of TNF in an ethyl pyruvate concentration dependent fashion
TNF gene transcript; listed as Ethyl pyruvate
  amount of TNF mRNA / TNF transcription: significantly reduced the amount of TNF mRNA
[1]; 40 mg/kg i.p. beginning 24 hours after onset of peritonitis, three weeks of monitoring, vehicle 5/17, P<0.005
  survival: 14/17
[1]; lower ethyl pyruvate doses, beginning 24 hours after onset of peritonitis
  protection against death: failed to confer significant protection against death
p38 MAPK; antibodies against phosphorylated (thr180/tyr182) p38MAPK
  LPS-induced phosphorylation of p38 MAPK: prevented the LPS-induced phosphorylation and subsequent activation of p38 MAPK
p38 MAPK; specificity control, western blot
  total levels of p38 MAPK: did not significantly influence the total levels of p38 MAPK
